Source: the supplement of paper PMC10307832

Experiments:
Assay in all cases: relative viability (nuclei count vs DMSO), 5 days (fraction); higher = more cells survive
[1] = compound: CCn1c(-c2nonc2N)nc2cnc(Oc3cccc(NC(=O)c4ccc(OCCN5CCOCC5)cc4)c3)cc21 + Cc1nc(Nc2ncc(C(=O)Nc3c(C)cccc3Cl)s2)cc(N2CCN(CCO)CC2)n1 [Dasatinib] (partner 0.075 µM)
Outline: (§1)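 Five library-drug doses in √10 steps were combined with a fixed anchor-drug dose, or a single drug was given alone, by pin tool to lung cancer cell lines in 1536-well plates the day after seeding. Nuclei were stained and counted after 5 days. Relative viability is the nuclei count in treated wells over that in vehicle wells, taken as the median of duplicate plates.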

Mirin + Bortezomib = compound: N=C1NC(=O)/C(=C/c2ccc(O)cc2)S1 [Mirin] + CC(C)C[C@H](NC(=O)[C@H](Cc1ccccc1)NC(=O)c1cnccn1)B(O)O [Bortezomib] (partner 0.002 µM)
Outline: as §1

[2] = compound: CCC1=CN=CN=C1N2CCN(CC2)CC3=NC4=C(N3)C=C(C=C4)C(F)(F)F + N=C(N)NC(=N)NCCc1ccccc1 [Phenformin] (partner 250 µM)
Outline: as §1

[3] = compound: CCC1=CN=CN=C1N2CCN(CC2)CC3=NC4=C(N3)C=C(C=C4)C(F)(F)F + C[C@@H](Oc1cc(-c2cnn(C3CCNCC3)c2)cnc1N)c1c(Cl)ccc(F)c1Cl [Crizotinib] (partner 1 µM)
Outline: as §1

Row | Cell Line | relative viability ([1]; first compound 0.04 µM) | relative viability ([1]; first compound 0.1265 µM) | relative viability ([1]; first compound 0.4 µM) | relative viability ([1]; first compound 1.265 µM) | relative viability ([1]; first compound 4 µM) | relative viability (Mirin + Bortezomib; first compound 0.25 µM) | relative viability (Mirin + Bortezomib; first compound 0.7906 µM) | relative viability (Mirin + Bortezomib; first compound 2.5 µM) | relative viability (Mirin + Bortezomib; first compound 7.906 µM) | relative viability (Mirin + Bortezomib; first compound 25 µM) | relative viability ([2]; first compound 0.04 µM) | relative viability ([2]; first compound 0.1265 µM) | relative viability ([2]; first compound 0.4 µM) | relative viability ([2]; first compound 1.265 µM) | relative viability ([2]; first compound 4 µM) | relative viability ([3]; first compound 0.04 µM) | relative viability ([3]; first compound 0.1265 µM) | relative viability ([3]; first compound 0.4 µM) | relative viability ([3]; first compound 1.265 µM) | relative viability ([3]; first compound 4 µM)
1 | LU99A | 0.573 | 0.467 | 0.352 | 0.367 | 0.388 | 1.07 | 0.93 | 1.17 | 1 | 0.968 | 0.858 | 0.795 | 0.808 | 0.634 | 0.942 | 0.543 | 0.53 | 0.541 | 1 | 1.09
2 | LXF-289 | 0.158 | 0.111 | 0.0564 | 0.0848 | 0.0678 | 0.99 | 1.08 | 1.01 | 1.02 | 1.11 | 0.54 | 0.461 | 0.547 | 0.483 | 0.529 | 0.823 | 0.754 | 0.825 | 0.781 | 0.87
3 | NCI-H23 | 0.927 | 0.758 | 0.294 | 0.611 | 0.543 | 1.3 |  | 1.15 | 0.842 | 0.817 | 0.703 | 0.742 | 0.768 | 0.73 | 0.792 | 0.591 | 0.559 | 0.574 | 0.689 | 0.989
4 | NCI-H322M | 0.255 | 0.216 | 0.231 | 0.274 | 0.259 | 1.22 | 1.29 | 1.41 | 1.42 | 1.24 | 0.874 | 0.761 | 0.772 | 0.632 | 0.799 | 0.956 | 0.868 | 0.918 | 0.896 | 1.37
5 | NCI-H441 | 0.635 | 0.683 |  | 0.685 | 0.549 | 0.387 | 0.645 | 0.449 | 0.314 | 0.409 | 0.699 | 0.874 | 0.718 | 0.868 | 0.833 | 0.742 | 0.627 | 0.789 | 0.859 | 1.04
6 | NCI-H460 | 0.467 | 0.288 | 0.154 | 0.136 | 0.112 | 1.22 | 1.2 | 1.21 | 1.12 | 1.15 | 0.465 | 0.525 | 0.484 | 0.439 | 0.499 | 1.06 | 1.03 | 0.886 | 0.832 | 1.14
7 | NCI-H520 | 0.166 | 0.174 | 0.166 | 0.163 | 0.139 | 0.503 | 0.13 | 0.632 | 0.355 | 0.358 | 0.553 | 0.648 | 0.38 |  | 0.46 | 0.73 | 0.784 | 0.837 | 0.796 | 1.12
8 | NCI-H596 | 0.682 | 0.611 | 0.495 | 0.469 | 0.546 | 1.12 |  | 0.982 | 1 | 0.905 | 0.729 | 0.66 | 0.67 |  | 0.79 | 0.91 | 1.06 | 0.971 | 1 | 1.14
9 | NCI-H647 | 0.145 | 0.0946 | 0.0784 | 0.122 | 0.0956 | 1.24 | 0.909 | 1.04 | 0.816 | 0.444 | 0.555 | 0.589 | 0.518 | 0.461 | 0.626 | 1.12 | 1.13 |  | 1.04 | 1.19
10 | NCI-H650 | 0.4 | 0.317 | 0.216 | 0.248 | 0.276 | 0.915 |  | 0.84 |  | 0.937 | 0.442 | 0.418 | 0.466 | 0.454 | 0.464 | 0.741 | 0.724 | 0.765 | 0.757 | 1.1
11 | NCI-H661 | 0.672 | 0.519 | 0.593 | 0.422 | 0.426 | 0.696 | 0.787 | 0.836 | 0.518 | 0.527 | 0.28 | 0.259 | 0.301 | 0.263 | 0.313 | 0.996 | 0.943 | 0.964 | 0.951 | 1.1
12 | NCI-H727 | 0.507 | 0.621 | 0.405 | 0.467 | 0.521 | 1.24 | 1.18 | 0.832 | 0.997 | 0.907 | 0.505 | 0.541 | 0.439 |  | 0.671 | 0.986 | 0.863 | 0.712 |  | 0.919
13 | NCI-H838 | 0.314 | 0.192 | 0.199 | 0.208 | 0.183 | 0.865 | 0.521 | 0.884 | 0.78 | 0.738 | 0.575 | 0.507 | 0.536 | 0.434 | 0.596 | 0.917 | 0.845 | 0.908 | 0.947 | 1.27
14 | NCI-H1355 | 0.755 | 0.712 | 0.235 | 0.312 | 0.275 | 1.3 | 1.19 | 1.16 | 1.23 | 1.38 | 0.456 | 0.428 | 0.406 | 0.395 | 0.424 | 1.07 | 1.01 | 1 | 1.14 | 1.15
15 | NCI-H1437 | 0.629 | 0.373 | 0.148 | 0.363 | 0.35 | 0.498 | 0.436 | 0.438 | 0.41 | 0.472 | 0.343 | 0.295 | 0.302 | 0.255 | 0.317 | 0.969 | 0.799 | 0.964 | 0.903 | 0.752
16 | NCI-H1563 | 0.447 | 0.452 | 0.343 | 0.461 | 0.456 | 1.07 | 1.11 | 0.943 | 0.8 | 0.812 | 0.713 | 0.639 | 0.662 | 0.661 | 0.689 | 0.822 | 0.847 | 0.928 | 0.962 | 1.09
17 | NCI-H1650 | 0.324 | 0.36 | 0.371 | 0.398 | 0.363 | 0.196 | 0.2 | 0.216 | 0.208 | 0.191 | 0.484 | 0.519 | 0.392 |  | 0.416 | 0.942 | 0.853 | 1.03 | 1.06 | 1.42
